Results published in article PMC9064041 (Journal of medicinal chemistry, 2020).
Converted amounts (≈) assume the structure as drawn. “And” between values parts separate entries of the source, which are not always exact repeats. Equal values may be shown once.

How the values were obtained:
[1] = test system: C. difficile ATCC BAA 1801; assay: MIC, broth microdilution, initial screening; type: cell-based, Clostridioides difficile; conditions: for MIC: Clostridioides difficile, BAA1801, 48 h
[2] = test system: C. difficile ATCC 43255; assay: MIC, broth microdilution, clinical isolate; type: cell-based; conditions: Clostridioides difficile, ATCC43255
[3] = test system: Lactobacillus crispatus HM-103; assay: MIC against normal gut microbiota; type: cell-based; conditions: HM103
[4] = test system: C. difficile NR-32904 (P30); assay: MIC, broth microdilution, clinical isolate; type: cell-based; conditions: Clostridioides difficile
[5] = test system: Lactobacillus gasseri HM-400; assay: MIC against normal gut microbiota; type: cell-based; conditions: HM400
[6] = test system: Lactobacillus crispatus HM-371; assay: MIC against normal gut microbiota; type: cell-based; conditions: HM371
[7] = test system: Bacteroides fragilis HM-709; assay: MIC against normal gut microbiota; type: cell-based; conditions: HM709
[8] = test system: Bacteroides fragilis HM-711; assay: MIC against normal gut microbiota; type: cell-based; conditions: HM711
[9] = test system: C. difficile NR-32891 (P13); assay: MIC, broth microdilution, clinical isolate; type: cell-based; conditions: Clostridioides difficile
[10] = test system: E. coli JW55031 (TolC Mutant); assay: MIC, broth microdilution; type: cell-based; conditions: Escherichia coli
[11] = test system: E. coli BW25113 (wild-type strain); assay: MIC, broth microdilution; type: cell-based, Escherichia coli; conditions: for MIC: Escherichia coli, BW25113
[12] = test system: Bacteroides spp; assay: MIC over Bacteroides species; type: cell-based; conditions: read-out: MIC against species of Bacteroides
[13] = test system: C. difficile NR-13432 (isolate 6); assay: MIC, broth microdilution, clinical isolate; type: cell-based; conditions: Clostridioides difficile
[14] = test system: VRE clinical isolates; assay: MIC range over VRE clinical isolates; type: cell-based, vancomycin-resistant enterococci; conditions: Enterococcus, read-out: MICs ranging over VRE clinical isolates
[15] = test system: E. faecalis ATCC 51299; assay: MIC, broth microdilution; type: cell-based; conditions: Enterococcus faecalis, ATCC51299
[16] = test system: C. difficile ATCC 43255; assay: Frequency of spontaneous mutation; conditions: for isolation of resistant mutants: high inoculum
[17] = test system: Caco-2 bilayers; assay: Caco-2 bidirectional permeability assay; type: in vitro ADME, human
[18] = test system: Lactobacillus strains; assay: MIC over Lactobacillus strains; type: cell-based, Lactobacillus spp; conditions: read-out: MIC against Lactobacillus strains
[19] = test system: human colorectal cells (Caco-2); assay: In vitro cytotoxicity, MTS assay; type: cell-based; conditions: 2 hours incubation with compound
[20] = test system: E. faecium ATCC 700221; assay: MIC, broth microdilution; type: cell-based; conditions: Enterococcus faecium, ATCC700221
[21] = test system: C. difficile NR-13435 (isolate 9); assay: MIC, broth microdilution, clinical isolate; type: cell-based; conditions: Clostridioides difficile
[22] = cited from earlier work
[23] = test system: C. difficile NR-32895 (P19); assay: MIC, broth microdilution, clinical isolate; type: cell-based; conditions: Clostridioides difficile
[24] = test system: C. difficile NR-32883 (P2); assay: MIC, broth microdilution, clinical isolate; type: cell-based; conditions: Clostridioides difficile
[25] = test system: C. difficile infection (CDI); conditions: cited from earlier work
[26] = 15 × MIC, inoculum ~10^9 CFU/mL
[27] = 20 × MIC, inoculum ~10^9 CFU/mL
[28] = C. difficile ATCC BAA 1801, anaerobic, 48 hours

MIC [1, 28] [µg/mL]	Structure (SMILES)	MIC [2] [µg/mL]	MIC [3]	MIC [5]	MIC [6] [µg/mL]	MIC [7] [µg/mL]	MIC [8]	MIC [10]	MIC [11]	MIC [15] [µg/mL]	MIC [20] [µg/mL]	other results
2 (≈ 5.47 µM)	O=C(Nc1nnc(-c2ccccc2)o1)c1ccc(SC(F)(F)F)cc1 [compound 1, N-(5-Phenyl-1,3,4-oxadiazol-2-yl)-4-((trifluoromethyl)thio)benzamide]	–	–	–	–	–	–	–	–	–	–	–
4 (≈ 10.4 µM)	O=C(Nc1nnc(-c2ccccc2F)o1)c1ccc(SC(F)(F)F)cc1 [compound 2, N-(5-(2-Fluorophenyl)-1,3,4-oxadiazol-2-yl)-4-((trifluoromethyl)thio)benzamide]	–	–	–	–	–	–	–	–	–	–	–
4 (≈ 10 µM)	O=C(Nc1nnc(-c2ccccc2Cl)o1)c1ccc(SC(F)(F)F)cc1 [compound 3, N-(5-(2-Chlorophenyl)-1,3,4-oxadiazol-2-yl)-4-((trifluoromethyl)thio)benzamide]	–	–	–	–	–	–	–	–	–	–	–

More lines, now with the values behind:

Structure (SMILES)	MIC [1, 28] [µg/mL]	MIC [2] [µg/mL]	MIC [3]	MIC [5]	MIC [6] [µg/mL]	MIC [7] [µg/mL]	MIC [8]	MIC [10]	MIC [11]	MIC [15] [µg/mL]	MIC [20] [µg/mL]	other results
Cc1ccc(-c2nnc(NC(=O)c3ccc(SC(F)(F)F)cc3)o2)cc1 [Compound 12, N-(5-(4-Methylphenyl)-1,3,4-oxadiazol-2-yl)-4-((trifluoromethyl)thio)benzamide]	–	–	–	–	–	–	–	–	–	–	–	activity against C. difficile ATCC BAA 1801 in words [1]: only moderate to no actvity
CCc1c(Cl)c(O)c(Cl)c(O)c1C(=O)O[C@H]1[C@H](O)[C@H](OC)[C@H](OC/C2=C\C=C\C[C@H](O)/C(C)=C/[C@H](CC)[C@@H](O[C@@H]3OC(C)(C)[C@@H](OC(=O)C(C)C)[C@H](O)[C@@H]3O)/C(C)=C/C(C)=C/C[C@@H]([C@@H](C)O)OC2=O)O[C@@H]1C [Fidaxomicin]	–	0.015 (≈ 0.0142 µM)	> 64 µg/mL and > 60.5 µM	> 64 µg/mL	> 64	> 64	> 64 µg/mL and > 60.5 µM	–	–	–	–	MIC [4]: 0.015 µg/mL (≈ 0.0142 µM); MIC [9]: 0.015 µg/mL (≈ 0.0142 µM)
CNC(C)C1CCC(N)C(OC2C(N)CC(N)C(OC3OCC(C)(O)C(NC)C3O)C2O)O1 (stereo not shown) [Gentamicin]	–	–	–	–	–	–	–	0.25 µg/mL and 0.52 µM	0.25 µg/mL and 0.52 µM	–	–	–
O=C(Nc1nnc(-c2cc(Cl)cc(Cl)c2)o1)c1ccc(SC(F)(F)F)cc1 [HSGN-218, N-(5-(3,5-Dichlorophenyl)-1,3,4-oxadiazol-2-yl)-4-((trifluoromethyl)thio)benzamide]	–	0.015 (≈ 0.0345 µM)	16 µg/mL (≈ 36.8 µM)	16 µg/mL (≈ 36.8 µM)	16 (≈ 36.8 µM)	1 (≈ 2.3 µM)	2 µg/mL (≈ 4.61 µM)	4 µg/mL (≈ 9.21 µM)	> 16 µg/mL	0.06 (≈ 0.138 µM)	0.125 (≈ 0.288 µM)	MIC [12]: 1 µg/mL to 2 µg/mL and 2.3 µM to 4.6 µM; MIC [13]: 0.03 µg/mL (≈ 0.0691 µM); MIC [14]: 0.06 µg/mL to 0.125 µg/mL and 0.14 µM to 0.29 µM; isolation of resistant mutants ([16]; 15 × MIC and 20 × MIC): No resistant mutants were isolated; Frequency of mutation [16, 26]: <1.1× 10^−9; Frequency of mutation [16, 27]: <1.1× 10^−9; Notes (permeability class) [17]: Low Permeability; MIC [18]: 16 µg/mL (≈ 36.8 µM); concentration highly tolerable to Caco-2 cells [19]: higher than 64 μg/mL; activity against E. coli BW25113 in words ([11]; wild-type strain): inactive; MIC [21]: 0.003 µg/mL (≈ 0.00691 µM)
CC(=O)NC[C@H]1CN(c2ccc(N3CCOCC3)c(F)c2)C(=O)O1 [Linezolid]	–	–	–	–	–	–	–	16 µg/mL (≈ 47.4 µM)	> 64 µg/mL and > 190 µM	1 (≈ 2.96 µM)	1 (≈ 2.96 µM)	–
Cc1ncc([N+](=O)[O-])n1CCO [Metronidazole]	0.25 (≈ 1.46 µM)	0.25 (≈ 1.46 µM)	> 64 µg/mL and > 374 µM	> 64 µg/mL	> 64	2 (≈ 11.7 µM)	≤ 1 µg/mL	–	–	> 64	> 64	MIC [4]: 0.25 µg/mL (≈ 1.46 µM); MIC [13]: 0.25 µg/mL (≈ 1.46 µM); bioavailable (absorption from the intestinal tract) [22]: 100%; MIC [23]: 0.25 µg/mL (≈ 1.46 µM); MIC [24]: 0.125 µg/mL (≈ 0.73 µM); treatment failure [25]: 22%; MIC [9]: 0.125 µg/mL (≈ 0.73 µM); MIC [21]: 0.125 µg/mL (≈ 0.73 µM)
CC(C)NCC(O)COc1cccc2ccccc12 (stereo not shown) [Propranolol]	–	–	–	–	–	–	–	–	–	–	–	Notes (permeability class) [17]: High Permeability Control
CNC(=C[N+](=O)[O-])NCCSCc1ccc(CN(C)C)o1 [Ranitidine]	–	–	–	–	–	–	–	–	–	–	–	Notes (permeability class) [17]: Low Permeability Control
CN[C@H](CC(C)C)C(=O)N[C@H]1C(=O)N[C@@H](CC(N)=O)C(=O)N[C@H]2C(=O)N[C@H]3C(=O)N[C@H](C(=O)N[C@H](C(=O)O)c4cc(O)cc(O)c4-c4cc3ccc4O)[C@H](O)c3ccc(c(Cl)c3)Oc3cc2cc(c3O[C@@H]2O[C@H](CO)[C@@H](O)[C@H](O)[C@H]2O[C@H]2C[C@](C)(N)[C@H](O)[C@H](C)O2)Oc2ccc(cc2Cl)[C@H]1O [Vancomycin]	–	1 (≈ 0.69 µM)	2 µg/mL (≈ 1.38 µM)	≤ 1 µg/mL and ≤ 0.7 µM	2 (≈ 1.38 µM)	32 (≈ 22.1 µM)	64 µg/mL (≈ 44.2 µM)	> 64 µg/mL	> 64 µg/mL	> 64	32 (≈ 22.1 µM)	MIC [1]: 1 µg/mL (≈ 0.69 µM); MIC [12]: 32 µg/mL to 64 µg/mL and 22.1 µM to 44.2 µM; MIC [4]: 1 µg/mL (≈ 0.69 µM); MIC [13]: 0.25 µg/mL (≈ 0.173 µM); Frequency of mutation ([16]; 15 × MIC and 20 × MIC): < 1.1× 10^−9; isolation of resistant mutants ([16]; 15 × MIC and 20 × MIC): no resistant mutants were isolated; Frequency of mutation [16, 26]: <1.1× 10^−9; Frequency of mutation [16, 27]: <1.1× 10^−9; MIC [18]: 1 µg/mL to 2 µg/mL and 0.7 µM to 1.4 µM; MIC [23]: 1 µg/mL (≈ 0.69 µM); MIC [24]: 0.5 µg/mL (≈ 0.345 µM); treatment failure [25]: 14%; MIC [9]: 0.5 µg/mL (≈ 0.345 µM); MIC [21]: 1 µg/mL (≈ 0.69 µM)
